System: finishing pigs
Test: Growth performance and carcass composition of finishing pigs
Type: in vivo, pig
Details: for lb FFL: fat free lean; for L side / R side: carcass; for lbs FFL/D: fat free lean gain per day
Text: Pigs were blocked by weight and allotted to one of four treatments with ten replicate pens per treatment. Pigs were housed with one pig per pen in an environmentally controlled finishing barn with 4 ft×4 ft slatted pens.
All animals were fed a corn-soybean meal diet with 1% corn oil. […] Final SARM concentrations were 1, 3, and 10 ppm. All animals were fed their respective diets for the duration of the study.
Pigs were allowed ad libitum access to feed and water. Pigs and feeders were weighed on day 7, 14, 21, and 28 to calculate average daily gain (ADG), average daily feed intake (ADFI), and feed-to-gain ratio (F/G or F:G). Each pen served as an experimental unit for all statistical analysis.
Pigs were slaughtered at the Kansas State University Meats Laboratory at the end of the study for collection of individual carcass data. At 24 hours postmortem, the right side of the carcass was frozen at −40° C. for approximately […]. After freezing, sides were ground once through a grinder equipped with a 19 mm die, then mixed and ground through a second grinder equipped with a 9.5 mm die. A sub sample of ground carcass was then chemically analyzed to determine percentages of crude protein, moisture/dry matter, lipid, and ash. Carcass measurements were done on the left side of the carcass, and a sample of lean and fat was taken from the longissimus at approximately the 10th rib.
The data were analyzed as a randomized complete-block design. Analysis of variance was performed by using the MIXED procedure of SAS. Linear and quadratic contrasts were used to evaluate the effects of increasing the level of the SARM on growth and carcass performance.

Which results are given for C[C@](O)(COc1ccc(Cl)c(F)c1)C(=O)Nc1ccc(C#N)c(C(F)(F)F)c1 [S-II, (S)-3-(4-chloro-3-fluorophenoxy)-N-(4-cyano-3-(trifluoromethyl)phenyl)-2-hydroxy-2-methylpropanamide]?
Carcass Wt (1 PPM): 201; Live Wt (1 PPM): 289; Carcass Wt (3 PPM): 200; Live Wt (3 PPM): 288; Carcass Wt (10 PPM): 197; Live Wt (10 PPM): 281; ADFI (average daily feed intake) (Day 0-7, 1 ppm in diet): 7.56; ADG (average daily gain) (Day 0-7, 1 ppm in diet): 2.89; ADFI (average daily feed intake) (Day 0-7, 3 ppm in diet): 7.54; ADG (average daily gain) (Day 0-7, 3 ppm in diet): 2.37; ADG (average daily gain) (Day 0-7, 10 ppm in diet): 2.17; ADFI (average daily feed intake) (Day 0-7, 10 ppm in diet, listed as SARM): 7.4; ADG (average daily gain) (Day 0-28 (total), 1 ppm in diet): 2.74; ADG (average daily gain) (Day 0-28 (total), 3 ppm in diet, listed as SARM): 2.7; ADG (average daily gain) (Day 0-28 (total), 10 ppm in diet, listed as SARM): 2.5; ADFI (average daily feed intake) (Day 0-28, 1 ppm in diet): 8.28; ADFI (average daily feed intake) (Day 0-28, 3 ppm in diet): 8.38; ADFI (average daily feed intake) (Day 0-28, 10 ppm in diet): 7.85; ADFI (average daily feed intake) (Day 8-14, 1 ppm in diet): 8.74; ADG (average daily gain) (Day 8-14, 1 ppm in diet): 2.59; ADG (average daily gain) (Day 8-14, 3 ppm in diet): 2.65; ADFI (average daily feed intake) (Day 8-14, 3 ppm in diet, listed as SARM): 8.5; ADFI (average daily feed intake) (Day 8-14, 10 ppm in diet): 7.89; ADG (average daily gain) (Day 8-14, 10 ppm in diet): 2.37; ADFI (average daily feed intake) (Day 15-21, 1 ppm in diet): 8.33; ADG (average daily gain) (Day 15-21, 1 ppm in diet): 2.33; ADFI (average daily feed intake) (Day 15-21, 3 ppm in diet): 8.61; ADG (average daily gain) (Day 15-21, 3 ppm in diet): 2.65; ADFI (average daily feed intake) (Day 15-21, 10 ppm in diet): 7.78; ADG (average daily gain) (Day 15-21, 10 ppm in diet): 2.43; ADFI (average daily feed intake) (Day 22-28, 1 ppm in diet): 8.51; ADG (average daily gain) (Day 22-28, 1 ppm in diet): 3.15; ADFI (average daily feed intake) (Day 22-28, 3 ppm in diet): 8.89; ADG (average daily gain) (Day 22-28, 3 ppm in diet): 3.15; ADFI (average daily feed intake) (Day 22-28, 10 ppm in diet): 8.33; ADG (average daily gain) (Day 22-28, 10 ppm in diet): 3.03; Gain (Days 0-7, 1 PPM): 20.3; Gain (Days 0-7, 3 PPM): 16.6; Gain (Days 0-7, 10 PPM): 15.2; Gain (Days 8-14, 1 PPM): 18.2; Gain (Days 8-14, 3 PPM): 18.6; Gain (Days 8-14, 10 PPM): 16.6; Gain (Days 15-21, 1 PPM): 16.3; Gain (Days 15-21, 3 PPM): 18.5; Gain (Days 15-21, 10 PPM): 17.0; Gain (Days 22-28, 1 PPM): 22.0; Gain (Days 22-28, 3 PPM): 22.0; Gain (Days 22-28, 10 PPM): 21.2; average daily gain (ADG) over the course of the study, trend (FIG. 5A): increased; fat free lean gain per day, trend (FIG. 5C): increased; ADG for days 21-28, trend (FIG. 5D): dramatically increased; improvement in lean percent (SARM-treated pigs vs control): ≤ 2%; improvement in pounds of fat free lean (SARM-treated pigs vs control): ≤ 2%; increase in loin eye area (LEA) (SARM-treated pigs vs control): ≤ 4%; 1st rib fat (Table 6, 1 ppm): 1.47 in; 10th rib fat (Table 6, 1 ppm): 0.78 in; Dress (Table 6, 1 ppm): 69.6%; Fat free lean (Table 6, 1 ppm): 106.9 lb; Heart Wt (Table 6, 1 ppm): 1.04 lb; Kidney Wt (Table 6, 1 ppm): 1.2 lb; LEA (Table 6, 1 ppm): 7.26 in^2; Last lumbar fat (row head printed only as 'in') (Table 6, 1 ppm): 0.77 in; Last rib fat (Table 6, 1 ppm): 0.9 in; Lean (Table 6, 1 ppm): 53.2%; Liver Wt (Table 6, 1 ppm): 4.58 lb; 1st rib fat (Table 6, 3 ppm): 1.48 in; 10th rib fat (Table 6, 3 ppm): 0.8 in; Dress (Table 6, 3 ppm): 69.3%; Fat free lean (Table 6, 3 ppm): 105.5 lb; Heart Wt (Table 6, 3 ppm): 1.07 lb; Kidney Wt (Table 6, 3 ppm): 1.18 lb; LEA (Table 6, 3 ppm): 7.22 in^2; Last lumbar fat (row head printed only as 'in') (Table 6, 3 ppm): 0.82 in; Last rib fat (Table 6, 3 ppm): 0.91 in; Lean (Table 6, 3 ppm): 52.9%; Liver Wt (Table 6, 3 ppm): 4.95 lb; 1st rib fat (Table 6, 10 ppm): 1.43 in; 10th rib fat (Table 6, 10 ppm): 0.74 in; Dress (Table 6, 10 ppm): 70%; Fat free lean (Table 6, 10 ppm): 106.7 lb; Heart Wt (Table 6, 10 ppm): 1.01 lb; Kidney Wt (Table 6, 10 ppm): 1.16 lb; LEA (Table 6, 10 ppm): 7.59 in^2; Last lumbar fat (row head printed only as 'in') (Table 6, 10 ppm): 0.74 in; Last rib fat (Table 6, 10 ppm): 0.86 in; Lean (Table 6, 10 ppm): 54.3%; Liver Wt (Table 6, 10 ppm): 4.84 lb; 1st rib fat (Table 7, 1 PPM): 1.47; 10th rib fat (Table 7, 1 PPM): 0.780; Dress % (Table 7, 1 PPM): 70%; Heart Wt (Table 7, 1 PPM): 1.04; Kidney Wt (Table 7, 1 PPM): 1.20; Last lumbar fat (Table 7, 1 PPM): 0.770; Last rib fat (Table 7, 1 PPM): 0.900; Liver Wt (Table 7, 1 PPM): 4.58; 1st rib fat (Table 7, 3 PPM): 1.48; 10th rib fat (Table 7, 3 PPM): 0.800; Dress % (Table 7, 3 PPM): 69%; Heart Wt (Table 7, 3 PPM): 1.07; Kidney Wt (Table 7, 3 PPM): 1.18; Last lumbar fat (Table 7, 3 PPM): 0.815; Last rib fat (Table 7, 3 PPM): 0.905; Liver Wt (Table 7, 3 PPM): 4.95; 1st rib fat (Table 7, 10 PPM): 1.43; 10th rib fat (Table 7, 10 PPM): 0.735; Dress % (Table 7, 10 PPM): 70%; Heart Wt (Table 7, 10 PPM): 1.01; Kidney Wt (Table 7, 10 PPM): 1.16; Last lumbar fat (Table 7, 10 PPM): 0.740; Last rib fat (Table 7, 10 PPM): 0.855; Liver Wt (Table 7, 10 PPM): 4.84; lb FFL (Table 7, 1 PPM): 107 lb; lb FFL (Table 7, 3 PPM): 106 lb; lb FFL (Table 7, 10 PPM): 107 lb; LEA (Table 7, loin eye area, 1 PPM): 7.26; LEA (Table 7, loin eye area, 3 PPM): 7.22; LEA (Table 7, loin eye area, 10 PPM): 7.59; L side (1 PPM): 98.0; R side (1 PPM): 103; L side (3 PPM): 97.7; R side (3 PPM): 102; L side (10 PPM): 96.8; R side (10 PPM): 99.8; lbs FFL/D (1 PPM): 0.822 lbs/D; lbs FFL/D (3 PPM): 0.774 lbs/D; lbs FFL/D (10 PPM): 0.814 lbs/D; Day 0-7 F:G, effect of treatment (linear contrast): significantly increased; Day 8-14 average daily feed intake (ADFI), effect of treatment (linear contrast): decreased; carcass crude fat, effect of feeding (pig, in vivo): reducing

Source: US9278914B2, “SARMs and method of use thereof” (UNIVERSITY OF TENNESSEE RESEARCH FOUNDATION, priority 2004, dated 2016)
